The values that follow come from patent US20260248822A1, “METHOD AND COMPOSITION FOR THE TREATMENT OF CANCER” (IMPACT HEALTH GLOBAL LTD., priority 2023, published 2026).

One experiment relates to 4T1 cells. In words: MTT cell viability assay in 4T1 cells. It is filed as cell-based, Mouse. As to conditions: for cancer cell viability, dose dependence: 4T1 cells, 0.5, 1, 1.5 and 2 mM, compared to the control; for cytotoxicity at 2000 µM: Mus musculus, read-out: reduction of cell viability compared to the control. The procedure:
Mouse breast carcinoma model (4T1 cells) were cultured in the presence of taraxasterol, vitexin, sinigrin or a mixture of all these molecules, at the indicated concentrations (0.5, 1, 1.5, and 2 mM), for 48 hours. Cell viability was determined by MTT colorimetric assay, in which a yellow tetrazole is reduced to purple formazan in living cells. The resultant color was measured at 450 nm. Reduced viability of cancer cells was a marker for the efficacy of the treatment.

Another experiment concerns human lung cancer cells. The conditions noted are these: cited from earlier work.
Another experiment concerns tumors. The conditions noted are these: mouse, in vivo; cited from earlier work.
Another experiment has as its system human colon cancer cells. As to conditions: cited from earlier work.

Where two headings read alike, the source gives them in different places.

Take `O=c1cc(-c2ccc(O)cc2)oc2c([C@@H]3O[C@H](CO)[C@@H](O)[C@H](O)[C@H]3O)c(O)cc(O)c12` [vitexin, 8-(β-D-glucopyranosyl)-4′,5,7-trihydroxyflavone]: the “cancer cell viability, dose dependence” value in the experiment on 4T1 cells (48 hours) is “reduced cancer cell viability dose dependently”. The cytotoxicity at 2000 µM in the experiment with 4T1 cells (4T1 cells, 2 mM, 48 hours, MTT) turned out to be 20%. The “apoptosis in human lung cancer cells” value in the experiment with human lung cancer cells is “induces apoptosis”. Besides, the “growth of tumors in mice” value in the experiment on tumors is listed as “suppresses the growth of tumors”.

For the compound `C=CC/C(=N/OS(=O)(=O)O)S[C@@H]1O[C@H](CO)[C@@H](O)[C@H](O)[C@H]1O` [sinigrin, (Z)-N-[1-(β-D-glucopyranosylsulfanyl)but-3-en-1-ylidene] hydroxylamine-O-sulfonic acid], the “cancer cell viability, dose dependence” value in the experiment on 4T1 cells (48 hours) is reported as “reduced cancer cell viability dose dependently”. Besides, in the experiment with 4T1 cells (4T1, 48 h), the cytotoxicity at 2000 µM stood at 23%. In addition, in the experiment on human lung cancer cells, the “apoptosis in human lung cancer cells” value is given as “induces apoptosis”.

`C=C1CC[C@]2(C)CC[C@]3(C)[C@H](CC[C@@H]4[C@@]5(C)CC[C@H](O)C(C)(C)[C@@H]5CC[C@]43C)[C@H]2[C@@H]1C` [taraxasterol, (3S,4aR,6aR,6bR,8aR,12S,12aR,12bR,14aR,14bR)-4,4,6a,6b,8a,12, 14b-heptamethyl-11-methylidenedocosahydropicen-3-ol]: the “cancer cell viability, dose dependence” value in the experiment with 4T1 cells (48 hours) is “reduced cancer cell viability dose dependently”. In the experiment on 4T1 cells (4T1 cells, 2 mM, 48 hours, MTT), the cytotoxicity at 2000 µM is 29%. Besides, in the experiment on human colon cancer cells, the “apoptosis in human colon cancer cells” value is on record as “induces apoptosis” and the “tumor growth in human colon cancer cells” value was “suppresses tumor growth”.
